Data taken from US12338229B2, “Small molecule stimulators of steroid receptor coactivator-3 and methods of their use as cardioprotective and/or vascular regenerative agents” (BAYLOR COLLEGE OF MEDICINE, priority 2018, dated 2025).

What was measured:
[1] = tested on: chorioallantoic membrane (CAM) of chicken eggs; assay: CAM angiogenesis assay with drug treated mouse embryonic fibroblasts; format: in vivo; conditions: MEFs pre-treated with 0.6 μM for 24 hours
Procedure: Angiogenesis Assay with drug treated mouse embryonic fibroblasts (MEFs). Five to seven day old SPF certified fertilized chicken eggs (white leghorn) were used to access the chorioallantoic membrane (CAM). Mouse embryonic fibroblasts (MEFs) were treated with 0.6 μM MCB-613 for 24 hours. Post treatment, two million MEFs were suspended in 60 μL of PBS containing magnesium and calcium and 40 μL of Matrigel (2M/egg) (Corning Inc.; Corning, NY). The MEFs were then mixed well by pipetting and transferred to the surface of the CAM. The vessel area on the CAM was monitored on a daily basis. Vehicle controls were maintained throughout the experiment. MEFs were allowed to grow on the CAM surface for four days at the end of which an image thresholding method (ImageJ) was used to quantify total vessel area on the CAM. Percent growth in vessel area was then compared across control and treated eggs (MEF treated versus untreated). n=6 eggs per condition.

[2] = tested on: mice after myocardial infarction; assay: Progressive maximal exercise test, indirect calorimetry (VO2, VCO2); format: in vivo; conditions: three weeks post-MI
Procedure: RER, VO2 and VCO2 measurements. Respiratory exchange ratio (RER), oxygen consumption (VO^2) and carbon dioxide expiration (VCO2) were measured by indirect calorimetry using a progressive maximal exercise test until mice reached exhaustion.
RER, VO2 and VCO2 measurements. RER, VO2 and VCO2 were measured by indirect calorimetry using a progressive maximal exercise test until mice reached exhaustion.

cardiac immune cells = assay: Flow cytometry cardiac immune phenotyping post-MI; format: in vivo, mice; conditions: 24 hours post-MI, vs control
Procedure: Flow Cytometry and Cardiac Immune Phenotyping. Hearts and spleens isolated from control and MCB-613 treated mice 24 hours post-MI or post-sham surgery were digested in digestion buffer: 500 μL of DNAse I (10 mg/ml), 500 μl Collagenase II (50 mg/ml) into 4 ml (enough for approx. 12 spleens @ 1x) RPMI 1640. Cells were placed on a GentleMacs dissociator and run on “IMPC_step2” twice and incubated at 25° C. for 15 minutes. The “IMPC_step2” program was repeated and the samples were incubated at 25° C. an additional 15 minutes followed by another round of the “IMPC_step2” program. Then, 400 μL of 4° C. Stopping Buffer (1x PBS, 0.1M EDTA) was added to each sample and centrifuged at ˜100 g for one second to collect liquid at the bottom of tube. Samples were filtered through mesh filter caps into 50 mL conical tubes. The tubes were then washed with 1 mL FACs buffer which was also then passed through the filter. Heart preps were more viscous and were washed with 20 mL cold filtered saline. Samples were centrifuged at 500 g for 6 minutes. Supernatant was discarded and the pellet suspended in 1 mL 4° C. FACS buffer. Following red blood cell (RBC) lysis and blocking, single cell suspensions were stained with an immune cell panel and quantified using an LSR II flow cytometer. Then, 500,000 live events were counted for spleen controls and the entire tube of heart cells was recorded and analyzed.

bone marrow granulocytes = assay: qPCR of bone marrow granulocytes post-MI; format: in vivo, mice; conditions: bone marrow granulocytes 24 hours post-MI
Procedure: RNA isolation and qPCR. Total RNA was isolated from cells using the Qiagen RNA isolation kit. cDNA was prepared with the VILO master mix reagent. qPCR analysis was carried out using the Taqman kit with primers for Tlr7, Lcn2 and 18s.
Granulocyte isolation. Bone marrow cells were isolated from the rear legs of mice treated with control or MCB-613 for 24 hours. Rear legs were removed and placed in ice-cold Hanks balanced salt solution (HBSS) (without Ca/Mg) plus 2% FBS. Both ends of the bone were cut and the bone marrow was flushed with ice cold HBSS with 2% FBS using a 26G needle. Clumps were broken up with an 18G needle and filtered through a 70 μm filter and centrifuged at 400 g for 10 min at 4° C. The pellet was suspended in RBC lysis buffer (BD Biosciences Pharmigen; San Diego, CA) and incubated at room temperature for two minutes. HBSS buffer (8 mL) was added and spun at 400 g for 10 mins at 4° C. Viable cells were counted by trypan blue exclusion and bone marrow granulocytes were isolated using a mouse Neutrophil Isolation Kit from Miltenyi Biotec (Bergisch Gladbach, Germany).

CCC1C/C(=C\c2cccnc2)C(=O)/C(=C/c2cccnc2)C1 (stereo not shown) [MCB-613]
angiogenesis (vessel area on CAM) [1]: promoted robust angiogenesis | VCO2 and VO2 during exercise [2]: VCO2 and VO2 are elevated | composition of cardiac immune cells (FACS) (cardiac immune cells): significant decrease in B cells, a trend for decreased monocytes and no change in the fraction of granulocytes | Tlr7 and Lcn2 mRNA expression in granulocytes (bone marrow granulocytes): Increased expression of Tlr7 and Lcn2
